According to ChEMBL document CHEMBL5230104, “Systemic review on B-RafV600E mutation as potential therapeutic target for the treatment of cancer” (Eur J Med Chem, 2020):
Values belong to the compound of their own block, whether it stands above or below them.

Legend:
WM 266-4 [1] = test: Antiproliferative activity against human WM266-4 cells measured after 48 hrs by MTT assay; assay type: functional, cell-based; settings: WM 266-4, 48 h
[2] = Antiproliferative activity against human WM1361 cells measured after 48 hrs by MTT assay; assay type: functional, cell-based; settings: WM1361, 48 h
A-375 [3] = test: Antiproliferative activity against human A-375 cells measured after 48 hrs by MTT assay; assay type: functional, cell-based; settings: A-375, 48 h
[4] = Inhibition of full length GST tagged mouse B-Raf V600E mutant preincubated for 1 hr and measured after 25 mins in presence of ATP
MDA-MB-468 [5] = test: Antiproliferative activity against human MDA-MB-468 cells; assay type: functional, cell-based
[6] = target: T1, Serine/threonine-protein kinase B-raf (Homo sapiens, UniProt P15056, V600E); test: Binding affinity to B-Raf V600E mutant (unknown origin)
Target sequence in this assay (P15056 2-766 V600E limits assumed): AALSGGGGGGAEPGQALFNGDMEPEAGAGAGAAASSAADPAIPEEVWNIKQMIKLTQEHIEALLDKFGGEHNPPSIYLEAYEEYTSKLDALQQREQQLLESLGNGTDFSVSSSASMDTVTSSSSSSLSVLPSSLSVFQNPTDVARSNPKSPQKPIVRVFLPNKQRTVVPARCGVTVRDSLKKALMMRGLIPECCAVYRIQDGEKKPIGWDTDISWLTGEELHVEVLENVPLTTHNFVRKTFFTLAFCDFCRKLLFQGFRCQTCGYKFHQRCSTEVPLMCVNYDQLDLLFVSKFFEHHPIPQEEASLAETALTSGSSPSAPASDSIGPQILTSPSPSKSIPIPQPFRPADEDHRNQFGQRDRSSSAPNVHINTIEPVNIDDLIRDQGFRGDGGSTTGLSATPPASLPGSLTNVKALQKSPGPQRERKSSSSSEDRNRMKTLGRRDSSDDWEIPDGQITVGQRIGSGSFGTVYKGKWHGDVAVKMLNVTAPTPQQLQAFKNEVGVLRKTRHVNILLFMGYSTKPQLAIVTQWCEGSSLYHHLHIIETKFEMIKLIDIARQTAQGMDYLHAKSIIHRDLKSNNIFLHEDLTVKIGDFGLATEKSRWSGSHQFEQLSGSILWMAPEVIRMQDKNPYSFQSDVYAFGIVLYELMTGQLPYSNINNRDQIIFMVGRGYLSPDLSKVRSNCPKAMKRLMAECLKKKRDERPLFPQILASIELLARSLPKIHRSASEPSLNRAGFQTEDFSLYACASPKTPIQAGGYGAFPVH

RPMI-8226 = test: Antiproliferative activity against human RPMI-8226 cells; assay type: functional, cell-based
K562 [7] = test: Antiproliferative activity against human K562 cells; assay type: functional, cell-based
SK-MEL-5 [8] = test: Antiproliferative activity against human SK-MEL-5 cells; assay type: functional, cell-based
[9] = target: T1, Serine/threonine-protein kinase B-raf; test: (§1) Inhibition of B-Raf V600E mutant (unknown origin)
Target sequence in this assay (P15056 whole entry V600E): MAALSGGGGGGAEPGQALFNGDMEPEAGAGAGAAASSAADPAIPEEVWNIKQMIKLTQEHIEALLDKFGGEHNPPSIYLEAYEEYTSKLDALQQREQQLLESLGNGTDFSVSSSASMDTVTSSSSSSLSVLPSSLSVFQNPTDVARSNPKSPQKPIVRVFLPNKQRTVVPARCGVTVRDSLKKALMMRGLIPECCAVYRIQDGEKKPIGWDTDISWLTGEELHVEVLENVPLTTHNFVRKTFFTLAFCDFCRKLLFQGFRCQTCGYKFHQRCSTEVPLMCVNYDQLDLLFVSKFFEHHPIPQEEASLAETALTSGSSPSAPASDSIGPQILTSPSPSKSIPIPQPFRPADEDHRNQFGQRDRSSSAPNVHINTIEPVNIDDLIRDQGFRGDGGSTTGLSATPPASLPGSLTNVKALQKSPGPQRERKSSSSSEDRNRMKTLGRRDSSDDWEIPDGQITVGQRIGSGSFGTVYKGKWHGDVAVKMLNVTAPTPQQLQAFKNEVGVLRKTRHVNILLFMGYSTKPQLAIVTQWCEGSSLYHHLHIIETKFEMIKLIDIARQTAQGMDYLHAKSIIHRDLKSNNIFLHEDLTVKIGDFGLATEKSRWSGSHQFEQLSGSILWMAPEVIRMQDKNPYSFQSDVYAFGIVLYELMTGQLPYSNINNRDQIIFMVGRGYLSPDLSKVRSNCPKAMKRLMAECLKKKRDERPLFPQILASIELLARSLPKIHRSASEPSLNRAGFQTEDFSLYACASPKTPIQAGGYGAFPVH

[10] = target: T2, Serine/threonine-protein kinase B-raf (Homo sapiens, UniProt P15056); test: Inhibition of wild type B-Raf (unknown origin)
T2 sequence (P15056 whole entry): as the sequence (P15056 whole entry V600E) above, with E600V counted along it

[11] = test system: Serine/threonine-protein kinase B-raf (Homo sapiens), P15056 [V600E]; test: Inhibition of B-Raf V600E mutant (unknown origin) at 10 uM relative to control
Sequence of Serine/threonine-protein kinase B-raf (Homo sapiens), P15056 [V600E] (P15056 whole entry V600E): as the sequence (P15056 whole entry V600E) above

SK-MEL-5 [12] = test: Anticancer activity against human SK-MEL-5 cells assessed as cell growth proliferation; assay type: functional, cell-based
PC-3 [13] = test: Anticancer activity against human PC-3 cells assessed as cell growth proliferation; assay type: functional, cell-based
UO-31 [14] = test: Anticancer activity against human UO-31 cells assessed as cell growth proliferation; assay type: functional, cell-based
NCI-H522 = test: Anticancer activity against human NCI-H522 cells assessed as cell growth proliferation; assay type: functional, cell-based
HOP-92 = test: Anticancer activity against human HOP-92 cells assessed as cell growth proliferation; assay type: functional, cell-based
SNB-75 = test: Anticancer activity against human SNB-75 cells assessed as cell growth proliferation; assay type: functional, cell-based
HT-29 [15] = test: Anticancer activity against human HT-29 cells assessed as cell growth proliferation; assay type: functional, cell-based
SR = test: Anticancer activity against human SR cells assessed as cell growth proliferation; assay type: functional, cell-based
OVCAR-3 = test: Anticancer activity against human OVCAR-3 cells assessed as cell growth proliferation; assay type: functional, cell-based
MDA-MB-468 [16] = test: Anticancer activity against human MDA-MB-468 cells assessed as cell growth proliferation; assay type: functional, cell-based
A-375 [17] = test: Anticancer activity against human A-375 cells assessed as cell growth proliferation; assay type: functional, cell-based
SW-620 = test: Anticancer activity against human SW620 cells assessed as cell growth proliferation; assay type: functional, cell-based
A-375 [18] = test: Antiproliferative activity against human A-375 cells incubated for 48 hrs by MTT based colorimetric method; assay type: functional, cell-based; settings: A-375, 48 h
WM 266-4 [19] = test: Antiproliferative activity against human WM266-4 cells incubated for 48 hrs by MTT based colorimetric method; assay type: functional, cell-based; settings: WM 266-4, 48 h
[20] = target: Serine/threonine-protein kinase B-raf (Mus musculus, UniProt P28028); test: Inhibition of full length GST tagged mouse wild type B-Raf preincubated for 1 hr and measured after 25 mins in presence of ATP
Sequence of Serine/threonine-protein kinase B-raf (Mus musculus, UniProt P28028) (P28028 whole entry): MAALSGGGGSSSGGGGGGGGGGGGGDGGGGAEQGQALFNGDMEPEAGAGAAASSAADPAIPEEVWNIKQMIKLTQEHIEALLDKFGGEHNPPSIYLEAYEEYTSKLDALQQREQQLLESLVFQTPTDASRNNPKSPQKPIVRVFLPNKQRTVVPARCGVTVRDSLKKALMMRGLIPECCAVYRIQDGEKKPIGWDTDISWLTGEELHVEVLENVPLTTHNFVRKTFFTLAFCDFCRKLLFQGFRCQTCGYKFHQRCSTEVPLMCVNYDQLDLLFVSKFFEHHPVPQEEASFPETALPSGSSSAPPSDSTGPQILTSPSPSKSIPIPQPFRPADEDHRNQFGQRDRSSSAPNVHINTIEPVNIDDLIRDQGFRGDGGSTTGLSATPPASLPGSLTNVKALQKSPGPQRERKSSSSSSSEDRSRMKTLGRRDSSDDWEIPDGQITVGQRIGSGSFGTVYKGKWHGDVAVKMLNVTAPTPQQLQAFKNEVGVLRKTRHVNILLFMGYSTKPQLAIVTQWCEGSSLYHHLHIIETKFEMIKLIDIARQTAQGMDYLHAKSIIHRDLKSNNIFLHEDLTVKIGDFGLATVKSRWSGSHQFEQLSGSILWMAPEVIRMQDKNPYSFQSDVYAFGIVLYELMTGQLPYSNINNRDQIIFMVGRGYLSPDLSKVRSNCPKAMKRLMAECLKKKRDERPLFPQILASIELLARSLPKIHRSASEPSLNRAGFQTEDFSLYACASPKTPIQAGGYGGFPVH

SK-MEL-28 [21] = test: Antiproliferative activity against human SK-MEL-28 cells; assay type: functional, cell-based
[22] = target: T1, Serine/threonine-protein kinase B-raf; test: Inhibition of B-Raf V600E mutant (unknown origin) by hotspot kinase assay
Target sequence in this assay (P15056 2-766 V600E limits assumed): as the sequence (P15056 2-766 V600E limits assumed) above

A-375 [23] = test: Antiproliferative activity against human A-375 cells; assay type: functional, cell-based
[24] = target: T2, Serine/threonine-protein kinase B-raf; test: Inhibition of wild type B-Raf (unknown origin) by hotspot kinase assay
[25] = target: T2, Serine/threonine-protein kinase B-raf; test: Inhibition of B-Raf (unknown origin)
HT-29 [26] = test: Antiproliferative activity against human HT-29 cells assessed as cell growth proliferation; assay type: functional, cell-based
[27] = target: T1, Serine/threonine-protein kinase B-raf; test: Inhibition of B-Raf V600E mutant (unknown origin) by radiometric protein kinase-reaction biology assay
Target sequence in this assay (P15056 2-766 V600E limits assumed): as above

IGROV-1 = test: Antiproliferative activity against human IGROV-1 cells assessed as reduction in cell viability; assay type: functional, cell-based
SK-MEL-5 [28] = test: Antiproliferative activity against human SK-MEL-5 cells assessed as reduction in cell viability; assay type: functional, cell-based
A-375 [29] = test: Antiproliferative activity against human A-375 cells assessed as reduction in cell viability; assay type: functional, cell-based
NCI-H460 = test: Antiproliferative activity against human NCI-H460 cells assessed as reduction in cell viability; assay type: functional, cell-based
SK-MEL-28 [30] = test: Antiproliferative activity against human SK-MEL-28 cells assessed as reduction in cell viability; assay type: functional, cell-based
UO-31 [31] = test: Antiproliferative activity against human UO-31 cells assessed as reduction in cell viability; assay type: functional, cell-based
HT-29 [32] = test: Antiproliferative activity against human HT-29 cells assessed as reduction in cell viability; assay type: functional, cell-based
K562 [33] = test: Antiproliferative activity against human K562 cells assessed as reduction in cell viability; assay type: functional, cell-based
PC-3 [34] = test: Antiproliferative activity against human PC-3 cells assessed as reduction in cell viability; assay type: functional, cell-based
[35] = target: T2, Serine/threonine-protein kinase B-raf; test: Inhibition of wild type B-Raf (unknown origin) by radiometric protein kinase-reaction biology assay
U-251 = test: Antiproliferative activity against human U-251 cells assessed as reduction in cell viability; assay type: functional, cell-based
T47D = test: Antiproliferative activity against human T47D cells assessed as reduction in cell viability; assay type: functional, cell-based
[36] = Inhibition of full length GST tagged mouse B-Raf V600E mutant measured after 25 mins by ELISA method
WM 266-4 [37] = test: Antiproliferative activity against human WM266-4 cells incubated for 24 hrs by MTT assay; assay type: functional, cell-based; settings: WM 266-4, 24 h
A-375 [38] = test: Cytotoxicity against human A-375 cells; assay type: functional, cell-based
HUVEC = test: Cytotoxicity against HUVEC cells; assay type: functional, cell-based; settings: Homo sapiens
[39] = test system: Serine/threonine-protein kinase B-raf (Homo sapiens), P15056 [V600E]; test: as §1
A-375 [40] = test: Antitumor activity against human A-375 cells xenografted in mouse model assessed as tumor growth inhibition at 50 mg/kg relative to control; assay type: functional; parameters: scale not given: the % may be the effect or the level left
[41] = Inhibition of full length GST tagged mouse B-Raf V600E mutant incubated for 1 hr
SK-OV-3 [42] = test: Antitumor activity against human SK-OV-3 cells xenografted in mouse model assessed as reduction in tumor growth measured after 40 days relative to control; assay type: functional; parameters: scale not given: the % may be the effect or the level left; settings: time 40 day
SK-OV-3 [43] = test: Antiproliferative activity against human SK-OV-3 cells; assay type: functional, cell-based
WM-115 = test: Antiproliferative activity against human WM-115 cells incubated for 72 hrs by celltiter glo assay; assay type: functional, cell-based; settings: WM-115, 72 h
SW1417 = test: Antiproliferative activity against human SW1417 cells incubated for 72 hrs by celltiter glo assay; assay type: functional, cell-based; settings: SW1417, 72 h
COLO 205 = test: Antiproliferative activity against human COLO 205 cells incubated for 72 hrs by celltiter glo assay; assay type: functional, cell-based; settings: COLO 205, 72 h
A-375 [44] = test: Antiproliferative activity against human A-375 cells incubated for 72 hrs by celltiter glo assay; assay type: functional, cell-based; settings: A-375, 72 h
RKO = test: Antiproliferative activity against human RKO cells incubated for 72 hrs by celltiter glo assay; assay type: functional, cell-based

- IC50 (A-375 [3]): 2040 nM
- IC50 [4]: 180 nM
SMILES: COc1ccc(S(=O)(=O)Nc2cc(-c3ccc(C)cc3)[nH]n2)cc1
- IC50 (WM 266-4 [1]): 1580 nM
- IC50 [2]: 10100 nM

SMILES: COc1cccc(-c2nn(-c3ccccc3)cc2-c2ccncc2)c1
- IC50 (MDA-MB-468 [5]): 6700 nM
- IC50 [6]: 1440 nM
- IC50 (RPMI-8226): 1710 nM
- IC50 (K562 [7]): 3420 nM

SMILES: O=S(=O)(NCCCNc1cc(-c2cn(-c3ccccc3)nc2-c2cccc(O)c2)ccn1)c1ccc(Cl)cc1
- IC50 (SK-MEL-5 [8]): 1270 nM
- IC50 [9]: 1160 nM
- IC50 [10]: 4870 nM

- inhibition [11]: 100%
- IC50 (SK-MEL-5 [12]): 510 nM
- IC50 (PC-3 [13]): 450 nM
- IC50 (NCI-H522): 270 nM
- IC50 (HT-29 [15]): 380 nM
- IC50 (OVCAR-3): 350 nM
- IC50 (MDA-MB-468 [16]): 270 nM
- IC50 (A-375 [17]): 820 nM
- IC50 (SW-620): 340 nM
SMILES: CCN1CCN(CCC(=O)Nc2cccc(-n3cc(-c4ccncc4)c(-c4ccc(Cl)c(OC)c4)n3)c2)CC1
- IC50 (UO-31 [14]): 920 nM
- IC50 (HOP-92): 780 nM
- IC50 (SNB-75): 390 nM
- IC50 (SR): 430 nM

SMILES: COc1ccc(-n2cc(Nc3cccc4[nH]ncc34)cn2)cc1
- IC50 [4]: 40 nM
- IC50 (A-375 [18]): 340 nM
- IC50 (WM 266-4 [19]): 380 nM
- IC50 [20]: 770 nM

SMILES: COc1cc(-c2nn(-c3ccc(NC(=O)CN4CCOCC4)cc3)cc2-c2ccncc2)ccc1Cl
- IC50 (SK-MEL-28 [21]): 2210 nM
- IC50 [22]: 2.98 nM
- IC50 (A-375 [23]): 1820 nM
- IC50 [24]: 536 nM

SMILES: COc1ccc(-c2n[nH]c(/N=C/c3ccc(O)c(OC)c3)n2)cc1
- IC50 [25]: 700 nM
- IC50 (HT-29 [26]): 1300 nM

SMILES: O=S(=O)(NCCCNc1nccc(-c2c(-c3cccc(F)c3)nc3occn23)n1)c1ccccc1
- IC50 [27]: 92 nM
- IC50 (IGROV-1): 40200 nM
- IC50 (SK-MEL-5 [28]): 28400 nM
- IC50 (A-375 [29]): 9810 nM
- IC50 (NCI-H460): 18500 nM
- IC50 (SK-MEL-28 [30]): 11200 nM
- IC50 (UO-31 [31]): 39800 nM
- IC50 (HT-29 [32]): 51800 nM
- IC50 (K562 [33]): 56300 nM
- IC50 (PC-3 [34]): 38900 nM
- IC50 [35]: 172 nM
- IC50 (U-251): 7380 nM
- IC50 (T47D): 53600 nM

- IC50 [36]: 150 nM
SMILES: Oc1ccccc1C1CC(c2ccc(Cl)c(Cl)c2)=NN1c1ccccc1 (stereo not given)
- IC50 (WM 266-4 [37]): 1750 nM

SMILES: CNC(=O)c1nc2ccc(C(=O)c3cccc(NC(=O)Nc4ccc(Cl)c(C(F)(F)F)c4)c3)cc2[nH]1
- IC50 (A-375 [38]): 3620 nM
- IC50 (HUVEC): 12500 nM
- IC50 [39]: 57.8 nM
- Activity (A-375 [40]): 17.99%

- IC50 [41]: 1300 nM
SMILES: Cc1ccc(NC(=S)NNC(=O)CNc2nc(-c3ccccc3)c(-c3ccccc3)s2)cc1

SMILES: COC[C@@H]1C[C@H]2[C@@H]3CCc4cc(O)ccc4[C@H]3CC[C@]2(C)C1NN (stereo not given in full)
- Activity (SK-OV-3 [42]): 93.61%
- IC50 [9]: 41 nM
- IC50 (SK-OV-3 [43]): 4230 nM
- IC50 [10]: 4320 nM

SMILES: Cc1nn(-c2ccccc2)c(Cl)c1Nc1ccc(C(F)(F)F)cc1
- IC50 (A-375 [23]): 810 nM
- IC50 [9]: 66 nM

- IC50 (SW1417): 208 nM
- IC50 (COLO 205): 5 nM
- IC50 (A-375 [44]): 3 nM
SMILES: CC(=O)Nc1cc(-c2sc(C3CCN(C4CC4)CC3)nc2-c2cccc(NS(=O)(=O)c3cc(F)ccc3F)c2F)ccn1
- IC50 (WM-115): 148 nM
- IC50 (RKO): 2280 nM
